Laboratory results reported in patent publication US20100256146A1, “TRISUBSTITUTED PIPERIDINES” (Novartis AG, priority 2007, published 2010).
pIC50: −log10 of the molar value.

Molecular target: T1, renin (Homo sapiens, UniProt P00797)
T1 construct: This test measures the formation of angiotensin I in human plasma; from tissue; host or cells: human plasma
T1 sequence (P00797 67-406): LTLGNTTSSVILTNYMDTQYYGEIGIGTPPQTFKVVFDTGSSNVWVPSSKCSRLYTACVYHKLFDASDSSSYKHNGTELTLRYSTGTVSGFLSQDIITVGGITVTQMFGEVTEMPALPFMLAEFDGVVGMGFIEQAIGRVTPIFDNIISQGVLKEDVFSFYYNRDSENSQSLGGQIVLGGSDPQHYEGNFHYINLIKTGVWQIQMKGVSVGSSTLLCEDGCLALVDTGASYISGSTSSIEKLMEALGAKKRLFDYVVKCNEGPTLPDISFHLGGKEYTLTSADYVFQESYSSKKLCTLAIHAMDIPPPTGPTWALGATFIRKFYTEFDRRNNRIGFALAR
Assay: in vitro test of Nussberger et al.: formation of angiotensin I in human plasma, determined by radioimmunoassay
Type: biochemical
Details: concentration of inhibitor which reduces the formation of angiotensin I in human plasma by 50%
Protocol: The effect of renin inhibitors is detected inter alia experimentally by means of in vitro tests where the reduction in the formation of angiotensin I is measured in various systems (human plasma, purified human renin together with synthetic or natural renin substrate). The following in vitro test of Nussberger et al. (1987) J. Cardiovascular Pharmacol., Vol. 9, pp. 39-44, is used inter alia. This test measures the formation of angiotensin I in human plasma. The amount of angiotensin I formed is determined in a subsequent radioimmunoassay. The effect of inhibitors on the formation of angiotensin I is tested in this system by adding various concentrations of these substances. The IC50 is defined as the concentration of the particular inhibitor which reduces the formation of angiotensin I by 50%. The compounds of the present invention show inhibitory effects in the in vitro systems at minimal concentrations of about 10^−6 to about 10^−10 mol/l.

| pIC50 | SMILES |
| --- | --- |
| 8.02 | COCCCN1CCOc2ccc(CO[C@H]3CNCC[C@]3(OC[C@@H](O)COC)c3ccc(COCCOC)cc3)cc21 [Example 3, (S)-1-Methoxy-3-{(3S,4S)-4-[4-(2-methoxy-ethoxymethyl)-phenyl]-3-[4-(3-methoxy-propyl)-3,4-dihydro-2H-benzo[1,4]oxazin-6-ylmethoxy]-piperidin-4-yloxy}-propan-2-ol] |
| 8.52 | COCCCO[C@]1(c2ccc(COC[C@@H](C)COC)cc2)CCNC[C@@H]1OCc1ccc2c(c1)N(CCCOC)CCO2 [Example 10, 6-[(3S,4S)-4-[4-((S)-3-Methoxy-2-methyl-propoxymethyl)-phenyl]-4-(3-methoxy-propoxy)-piperidin-3-yloxymethyl]-4-(3-methoxy-propyl)-3,4-dihydro-2H-benzo[1,4]oxazine] |
| 8.12 | COCCCN1CCOc2ccc(CO[C@H]3CNCC[C@]3(OCC#N)c3ccc(COC[C@@H](C)COC)cc3)cc21 [Example 12, {(3S,4S)-4-[4-((S)-3-Methoxy-2-methyl-propoxymethyl)-phenyl]-3-[4-(3-methoxy-propyl)-3,4-dihydro-2H-benzo[1,4]oxazin-6-ylmethoxy]-piperidin-4-yloxy}-acetonitrile] |
| 7.58 | COCCCN1CCOc2ccc(CO[C@H]3CNCC[C@]3(OCCOC)c3ccc(COCCOC)cc3)cc21 [Example 1, 6-{(3S,4S)-4-(2-Methoxy-ethoxy)-4-[4-(2-methoxy-ethoxymethyl)-phenyl]-piperidine-3-yloxymethyl}-4-(3-methoxy-propyl)-3,4-dihydro-2H-benzo[1,4]oxazine] |
| 7.03 | COCCCN1CCOc2ccc(CO[C@H]3CNCC[C@]3(OCC3CCCC3)c3ccc(COCCOC)cc3)cc21 [Example 5, 6-{(3S,4S)-4-Cyclopentylmethoxy-4-[4-(2-methoxy-ethoxymethyl)-phenyl]-piperidin-3-yloxymethyl}-4-(3-methoxy-propyl)-3,4-dihydro-2H-benzo[1,4]oxazine] |
| 7.98 | COCCCN1CCOc2ccc(CO[C@H]3CNCC[C@]3(OC[C@H](O)COC)c3ccc(COCCOC)cc3)cc21 [Example 2, (R)-1-Methoxy-3-{(3S,4S)-4-[4-(2-methoxy-ethoxymethyl)-phenyl]-3-[4-(3-methoxy-propyl)-3,4-dihydro-2H-benzo[1,4]oxazin-6-ylmethoxy]-piperidin-4-yloxy}-propan-2-ol] |
